Experimental data taken from US9987243B2, “Use of trans-palmitoleate in identifying and treating metabolic disease” (Trustees of Tufts College, priority 2010, dated 2018).
Marks after values point to notes of the source that are not given here.

Assays:
[1] = system: 3,736 U.S. men and women in the Cardiovascular Health Study; assay: Cardiovascular Health Study: multivariable-adjusted relationships of plasma phospholipid trans-palmitoleate with metabolic risk factors; format: in vivo, human; conditions: for BMI / Blood Pressure: Diastolic / Blood Pressure: Systolic / Fasting insulin / HOMA-IR / Total/HDL-C ratio / Waist circumference: adjusted mean
Procedure: The present inventors investigated relationships of circulating trans-palmitoleate levels with metabolic risk and incident diabetes mellitus among 3,736 U.S. men and women in the prospective Cardiovascular Health Study. Plasma phospholipid fatty acids, anthropometry, blood lipids, inflammatory markers, and glucose-insulin levels were measured at baseline using standardized methods. Independent determinants of trans-palmitoleate and relationships of trans-palmitoleate with metabolic risk factors were investigated using multivariable-adjusted linear regression. Relationships with incident diabetes (304 incident cases) were investigated using Cox proportional-hazards. Validation for metabolic risk factors was performed in a second independent cohort of 327 generally healthy women.
CHS design and recruitment have been described. Fried et al., 1 Ann. Epidemiol. 263 (1991). Briefly, 5,201 ambulatory, non-institutionalized adults age ≥65 were selected randomly and then enrolled in 1989 to 1990 from Medicare eligibility lists in 4 U.S. communities (Forsyth County, NC; Sacramento County, CA; Washington County, MD.; Allegheny County, PA); an additional 687 black participants were recruited similarly and enrolled in 1992. Among all eligible adults contacted, 57% agreed to enroll. Baseline in-clinic evaluations included standardized physical examination, diagnostic testing, laboratory evaluation, and questionnaires on health status, medical history, and cardiovascular and lifestyle risk factors. Each center's institutional review committee approved the study; all participants provided informed written consent.
Plasma phospholipid fatty acids were measured in 3,736 individuals using 1992 blood samples, considered to be the baseline for all present analyses. This included 3,238 participants randomly selected from individuals with available blood samples in 1992 and an additional 498 participants from a prior case-control study of myocardial infarction. All analyses accounted for this within-cohort sampling using inverse-probability-of-sampling weights. Plasma phospholipids were selected as an excellent marker of longer-term (4-8 week) circulating fatty acids, with similar responses as levels in erythrocyte membranes. Blood was drawn after a 12-hr fast, stored (−70° C.), and shipped on dry ice for long-term centralized storage (−80° C.). Under these conditions plasma phospholipid fatty acids are stable long-term, and in prior studies we observed no degradation, lipolysis, or oxidation after 10 years storage. Measurements were performed at the Fred Hutchinson Cancer Research Center, providing quantitative measurement of 45 fatty acids as percent of total fatty acids. Total lipids were extracted from plasma using methods of Folch, and phospholipids separated from neutral lipids by one-dimensional TLC. Fatty-acid-methyl-ester (FAME) samples were prepared by direct transesterification using methods of Lepage and separated using gas chromatography (Agilent5890 gas-chromatograph-FID-detector; Supelco fused-silica 100 m capillary column SP-2560; initial 160° C. 16 min, ramp 3.0° C./min to 240° C., hold 15 min). Identification, precision, and accuracy were continuously evaluated using model mixtures of known FAMEs and established in-house controls, with identification confirmed by GC-MS at USDA (Peoria, Ill.) or for trans-fats by silver-ion TLC. CVs were 2.5% for trans-palmitoleate and <3% for most fatty acids.
At study-clinic examinations, risk factors were measured by trained personnel. Fried et al., 1991. Anthropometric measures including weight, height, and waist circumference were collected using standard procedures and used to calculate body mass index (BMI). Fasting total cholesterol, HDL-C, and triglycerides were measured according to CDC methods. LDL-C was calculated according to Friedewald equation, excluding individuals with hypertriglyceridemia. […]

[2] = system: OB/OB, wild-type, and high-fat diet mice; assay: Tolerability of oral gavage administration in mice; format: in vivo; conditions: 200 mg/kg/day to 2 g/kg/day for 5 weeks in PEG 300
Procedure: Trans-palmitoleate was obtained in pure, powdered form from Nu-Check Prep, Inc. (Elysian, Minn.) and dissolved in a polyethylene glycol vehicle (PEG 300). Mice were administered, by gavage, trans-palmitoleate in doses ranging from 200 mg/kg/day to 2 g/kg/day for 5 weeks. […] In OB/OB mice, after 2 weeks of treatment, plasma lipid analysis was determined from samples taken after 6 hr of fasting, 30 hr after last trans-palmiloleate administration. Additionally, research diets comprising mouse chow at 2% trans-palmitoleate % total food weight can be formulated.

[3] = system: C2C12 myotubes; assay: Glucose uptake assay in differentiated C2C12 myotubes; format: cell-based; conditions: 0.25 mM for 6 hr, values only in FIG. 1
Procedure: FIG. 1 is a bar graph showing data from differentiated C2C12 myotubes that were incubated with control medium, or medium with 0.25 mM palmitate (C16) or trans-16:1n7-palmitoleate for 6 hours; glucose uptake was assayed as described herein.
C2C12 myoblasts were maintained in 20% fetal bovine serum. To differentiate the myoblasts, cells were plated in 12-well plates coated with 0.2% gelatin and medium changed to 2% horse serum upon confluence. Five days post-differentiation, C2C12 myotubes were incubated in serum-free medium with 0.5% bovine serum albumin (Sigma) and indicated fatty acids at a final concentration of 0.25 mM for 6 hr. Glucose uptake assay was performed as described previously, with modifications. Somwar et al., 276 J. Biol. Chem. 46079 (2001). Briefly, cells were washed twice with 500 μl warm Krebs-Ringer-Hepes (KRH) buffer and 1 ml of KRH buffer was added into each wells. ^3H 2-D-Glucose (0.5 μCi/well) was added and cells were kept in incubator for 10 min. Medium was then removed and cells washed twice with ice-cold KRH buffer. Cells were plated on ice and lysed in 500 μl 0.1% SDS. Aliquots of 400 μl cell lysate were used for scintillation counting and protein assay quantification assay was performed on the rest of cell lysate.

[4] = across quintiles, further adjusted for adiposity
[5] = across quintiles, multivariable-adjusted
[6] = quintile I (median 0.13% of total fatty acids)
[7] = quintile II (median 0.16% of total fatty acids)
[8] = quintile III (median 0.18% of total fatty acids)
[9] = quintile IV (median 0.21% of total fatty acids)
[10] = quintile V (median 0.25% of total fatty acids)

## CCCCCC/C=C/CCCCCCCC(=O)O [trans-palmitoleate, trans-C16:1n7-palmitoleic acid]
[1]; P=0.006, limited to lower levels in the lowest quintile only
  association with fibrinogen: higher fibrinogen
[1]; [4]
  difference in CRP across quintiles: −13.8%
  difference in HDL-C across quintiles: +1.9%
  difference in fasting insulin across quintiles: −13.3%
  difference in insulin resistance assessed by HOMA-IR across quintiles: −16.7%
  difference in total:HDL-C ratio across quintiles: −4.7%
  difference in triglycerides across quintiles: −19.0%
[1]; [5]
  difference in BMI across quintiles: −1.8%
  difference in waist circumference across quintiles: −1.8%
[1]; multivariable-adjusted
  association with LDL-C, fasting glucose, or BP: not associated
[1]; [6]
  BMI: 26.7 kg/m^2
  Blood Pressure: Diastolic: 71 mmHg
  Blood Pressure: Systolic: 137 mmHg
  Fasting insulin: 11.3 mU/l
  HOMA-IR: 3.0 units
  Total/HDL-C ratio: 4.3
  Waist circumference: 97.7 cm
[1]; [7]
  BMI: 27.0 kg/m^2
  Blood Pressure: Diastolic: 71 mmHg
  Blood Pressure: Systolic: 136 mmHg
  Fasting insulin: 11.0 mU/l
  HOMA-IR: 2.9 units
  Total/HDL-C ratio: 4.3
  Waist circumference: 98.4 cm
[1]; [8]
  BMI: 26.8 kg/m^2
  Blood Pressure: Diastolic: 70 mmHg
  Blood Pressure: Systolic: 136 mmHg
  Fasting insulin: 10.7 mU/l
  HOMA-IR: 2.8* units
  Total/HDL-C ratio: 4.2
  Waist circumference: 97.2 cm
[1]; [9]
  BMI: 26.9 kg/m^2
  Blood Pressure: Diastolic: 71 mmHg
  Blood Pressure: Systolic: 136 mmHg
  Fasting insulin: 10.2† mU/l
  HOMA-IR: 2.7† units
  Total/HDL-C ratio: 4.1†
  Waist circumference: 97.4 cm
[1]; [10]
  BMI: 26.2 kg/m^2
  Blood Pressure: Diastolic: 71 mmHg
  Blood Pressure: Systolic: 136 mmHg
  Fasting insulin: 9.8‡ mU/l
  HOMA-IR: 2.5‡ units
  Total/HDL-C ratio: 4.1†
  Waist circumference: 96.0* cm
[2]
  tolerability: well-tolerated, with no ill effects observed
[3]
  glucose uptake: Positive Glucose Uptake
